Active and inactive are the calls of the source. The rule behind the calls is not given here.
Tests used:
[1] = Antioxidant activity assessed as reduction of Cu2+ in bis-neocuproine-Cu2+ complex to bis-neocuproine-Cu+ complex measured as trolox equivalent antioxidant capacity incubated for 30 mins by CUPRAC assay; type: functional
[2] = Metal coordinating activity assessed as compound-copper coordination at 12.5 to 37.5 uM incubated for 0.5 to 1 hr in presence of 2.5 mM CuCl2 by UV-Visible spectrophotometric analysis; type: functional

SMILES	Ratio [1]	Activity [2]	Activity [1]
COc1cc(C(C)C)c(C(=O)CSc2nnc(-c3ccncc3)o2)cc1C	0.95	–	–
COc1cc(C(C)C)c(C(=O)CSc2nnc(-c3ccccn3)o2)cc1C	1.59	inactive	–
COc1cc(C(C)C)c(C(=O)CSc2nc3ccccc3[nH]2)cc1C	1.21	–	–
COc1cc(C(C)C)c(C(=O)CSc2ccccn2)cc1C	0.59	–	–
COc1cc(C(C)C)c(C(=O)CSc2nnc(C)s2)cc1C	1.73	–	–
Cc1ccc(C(C)C)cc1O	0.87	–	–
COc1cc(C(C)C)c(C(=O)CSc2ncccn2)cc1C	0.39	–	–
COc1cc(C(C)C)c(C(=O)CSc2nnc(-c3ccccc3)o2)cc1C	1.34	–	–
O=C1O[C@H]([C@@H](O)CO)C(O)=C1O	0.85	–	–
COc1cc(C(C)C)c(C(=O)CSc2nc3ccccc3s2)cc1C	1.26	–	–
COc1cc(C(C)C)c(C(=O)CSc2ccncc2)cc1C	0.47	–	–
COc1cc(C(C)C)c(C(=O)CSc2nnc(-c3cccnc3)o2)cc1C	0.68	–	–
COc1cc(C(C)C)c(C(=O)CSc2nc3ccccc3o2)cc1C	1.47	–	–
COc1cc(C(C)C)c(C(=O)CSc2nnc(N)s2)cc1C	1.4	–	–
COc1cc(C(C)C)c(C(=O)CSc2nnc(N)[nH]2)cc1C	1.62	–	–
COc1cc(C(C)C)c(C(=O)CSc2nnc(-c3ccccc3)[nH]2)cc1C	1.02	–	–
COc1cc(C(C)C)c(C(=O)CS(=O)(=O)c2ccccc2)cc1C	–	–	inactive
COc1cc(C(C)C)c(C(=O)CSc2ccccc2)cc1C	0.8	–	–
COc1cc(C(C)C)c(C(=O)CSc2ncnc3[nH]cnc23)cc1C	1.32	–	–

— ChEMBL document CHEMBL4351033, “Heterocyclic β-keto sulfide derivatives of carvacrol: Synthesis and copper (II) ion reducing capacity” (Bioorg Med Chem Lett, 2019)
